# According to PubChem BioAssay (NCI):
#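 Compound exposure: 48 hours, 5 concentrations, 96-well plates. TGI marks complete inhibition of growth.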
# Tests used:
# Experiment in all cases: DTP human tumour cell line panel, 48 h
# [1] = system: HCT-15 colon
# [2] = system: SK-MEL-5 melanoma
# [3] = system: SK-MEL-2 melanoma
# [4] = system: OVCAR-5 ovarian
# [5] = system: M14 melanoma
# [6] = system: UACC-62 melanoma
# [7] = system: MDA-MB-435
# [8] = system: TK-10 renal
# [9] = system: BT-549 breast
# [10] = system: NCI-H460 lung
# [11] = system: PC-3 prostate
# [12] = system: KM12 colon
# [13] = system: MALME-3M melanoma
# [14] = system: U251 CNS
# [15] = system: SF-268 CNS
# [16] = system: IGROV1 ovarian
# [17] = system: CCRF-CEM leukemia
# [18] = system: SF-539 CNS
# [19] = system: NCI-H23 lung
# [20] = system: SR leukemia
# [21] = system: SK-MEL-28 melanoma
# [22] = system: HCT-116 colon
# [23] = system: UACC-257 melanoma
# [24] = system: HS 578T breast
# [25] = system: K-562 leukemia
# [26] = system: MDA-MB-231 breast
# [27] = system: SF-295 CNS
# [28] = system: SW-620 colon
# [29] = system: RXF 393 renal
# [30] = system: LOX IMVI melanoma
# [31] = system: UO-31 renal
# [32] = system: SNB-19 CNS
# [33] = system: EKVX NSCLC
# [34] = system: HT29 colon
# [35] = system: NCI-H226 lung
# [36] = system: RPMI-8226 leukemia
# [37] = system: HL-60(TB) leukemia
# [38] = system: HOP-62 NSCLC
# [39] = system: OVCAR-8 ovarian
# [40] = system: NCI/ADR-RES ovarian
# [41] = system: ACHN renal
# [42] = system: MDA-N
# [43] = system: CAKI-1 renal
# [44] = system: OVCAR-3 ovarian
# [45] = system: 786-0 renal
# [46] = system: A498 renal
# [47] = system: SK-OV-3 ovarian
# [48] = system: MOLT-4 leukemia
# [49] = system: DU-145 prostate
# [50] = system: SN12C renal
# [51] = system: COLO 205 colon
# [52] = system: SNB-75 CNS
# [53] = system: MCF7 breast
# [54] = system: OVCAR-4 ovarian
# [55] = system: NCI-H522 lung
# [56] = system: A549 NSCLC
# [57] = system: HCC-2998 colon
# [58] = system: HOP-92 NSCLC
smiles,measurement,setting,value
O=C(CN1CCOCC1)c1ccc2[nH]c(=O)oc2c1,TGI,[1],> 100 µM
same,TGI,[2],> 100 µM
same,TGI,[3],> 100 µM
same,TGI,[4],> 100 µM
same,TGI,[5],> 100 µM
same,TGI,[6],> 100 µM
same,TGI,[7],> 100 µM
same,TGI,[8],> 100 µM
same,TGI,[9],> 100 µM
same,TGI,[10],> 100 µM
same,TGI,[11],> 100 µM
same,TGI,[12],> 100 µM
same,TGI,[13],> 100 µM
same,TGI,[14],> 100 µM
same,TGI,[15],> 100 µM
same,TGI,[16],> 100 µM
same,TGI,[17],> 100 µM
same,TGI,[18],> 100 µM
same,TGI,[19],> 100 µM
same,TGI,[20],> 100 µM
same,TGI,[21],> 100 µM
same,TGI,[22],> 100 µM
same,TGI,[23],> 100 µM
same,TGI,[24],> 100 µM
same,TGI,[25],> 100 µM
same,TGI,[26],> 100 µM
same,TGI,[27],> 100 µM
same,TGI,[28],> 100 µM
same,TGI,[29],> 100 µM
same,TGI,[30],> 100 µM
same,TGI,[31],> 100 µM
same,TGI,[32],> 100 µM
same,TGI,[33],> 100 µM
same,TGI,[34],> 100 µM
same,TGI,[35],> 100 µM
same,TGI,[36],> 100 µM
same,TGI,[37],> 100 µM
same,TGI,[38],> 100 µM
same,TGI,[39],> 100 µM
same,TGI,[40],> 100 µM
same,TGI,[41],> 100 µM
same,TGI,[42],> 100 µM
same,TGI,[43],> 100 µM
same,TGI,[44],> 100 µM
same,TGI,[45],> 100 µM
same,TGI,[46],> 100 µM
same,TGI,[47],> 100 µM
same,TGI,[48],> 100 µM
same,TGI,[49],> 100 µM
same,TGI,[50],> 100 µM
same,TGI,[51],> 100 µM
same,TGI,[52],> 100 µM
same,TGI,[53],> 100 µM
CC(/C=C/C=C/C=C/C=C/C=C/C(O)=C1/C(=O)C(CCC(=O)O)N(C)C1=O)=C\C(C)C(OC1CC(O)C(O)C(C)O1)C(C)C (centres undefined),TGI,[1],19.4 µM
same,TGI,[2],3.85 µM
same,TGI,[3],12.9 µM
same,TGI,[4],7.83 µM
same,TGI,[5],15.2 µM
same,TGI,[7],7.93 µM
same,TGI,[8],7.92 µM
same,TGI,[9],7.1 µM
same,TGI,[54],40.1 µM
same,TGI,[10],10.1 µM
same,TGI,[11],16.6 µM
same,TGI,[12],3.73 µM
same,TGI,[13],8.4 µM
same,TGI,[14],11.7 µM
same,TGI,[15],14 µM
same,TGI,[16],4.48 µM
same,TGI,[17],8.47 µM
same,TGI,[18],6.3 µM
same,TGI,[19],9.75 µM
same,TGI,[20],40.2 µM
same,TGI,[21],10.1 µM
same,TGI,[22],7.15 µM
same,TGI,[23],6.66 µM
same,TGI,[24],32.3 µM
same,TGI,[25],15.6 µM
same,TGI,[26],12.2 µM
same,TGI,[27],14.8 µM
same,TGI,[28],14.6 µM
same,TGI,[29],11.2 µM
same,TGI,[30],11.5 µM
same,TGI,[31],13.5 µM
same,TGI,[32],9.44 µM
same,TGI,[33],12.4 µM
same,TGI,[55],7.35 µM
same,TGI,[56],10.5 µM
same,TGI,[34],14 µM
same,TGI,[35],11.8 µM
same,TGI,[36],9.25 µM
same,TGI,[37],6.07 µM
same,TGI,[38],3.68 µM
same,TGI,[39],15.1 µM
same,TGI,[40],50.2 µM
same,TGI,[41],10.4 µM
same,TGI,[57],7.53 µM
same,TGI,[42],12.7 µM
same,TGI,[43],12.6 µM
same,TGI,[44],5.12 µM
same,TGI,[58],8.66 µM
same,TGI,[45],11.1 µM
same,TGI,[46],10.7 µM
same,TGI,[48],7.08 µM
same,TGI,[49],12.4 µM
same,TGI,[50],13.6 µM
same,TGI,[51],4.48 µM
same,TGI,[52],22.8 µM
same,TGI,[53],33.6 µM
